Calls of active or inactive are those of the source. The calls are words filed in the database; no cut-off is given here.
Assays:
[1] = molecular target: T1, Protein deacetylase HDAC6 (Homo sapiens, UniProt Q9UBN7); assay: Inhibition of N-terminal GST-tagged full length recombinant human HDAC6 (1 to 1215 end residues) expressed in sf9 cells using ZMAL (Z-Lys(Ac)-AMC as fluorogenic substrate preincubated with compound for 60 mins followed by substrate addition and measured after 90 mins by fluorescence based microplate reader analysis
T1 sequence (Q9UBN7 whole entry): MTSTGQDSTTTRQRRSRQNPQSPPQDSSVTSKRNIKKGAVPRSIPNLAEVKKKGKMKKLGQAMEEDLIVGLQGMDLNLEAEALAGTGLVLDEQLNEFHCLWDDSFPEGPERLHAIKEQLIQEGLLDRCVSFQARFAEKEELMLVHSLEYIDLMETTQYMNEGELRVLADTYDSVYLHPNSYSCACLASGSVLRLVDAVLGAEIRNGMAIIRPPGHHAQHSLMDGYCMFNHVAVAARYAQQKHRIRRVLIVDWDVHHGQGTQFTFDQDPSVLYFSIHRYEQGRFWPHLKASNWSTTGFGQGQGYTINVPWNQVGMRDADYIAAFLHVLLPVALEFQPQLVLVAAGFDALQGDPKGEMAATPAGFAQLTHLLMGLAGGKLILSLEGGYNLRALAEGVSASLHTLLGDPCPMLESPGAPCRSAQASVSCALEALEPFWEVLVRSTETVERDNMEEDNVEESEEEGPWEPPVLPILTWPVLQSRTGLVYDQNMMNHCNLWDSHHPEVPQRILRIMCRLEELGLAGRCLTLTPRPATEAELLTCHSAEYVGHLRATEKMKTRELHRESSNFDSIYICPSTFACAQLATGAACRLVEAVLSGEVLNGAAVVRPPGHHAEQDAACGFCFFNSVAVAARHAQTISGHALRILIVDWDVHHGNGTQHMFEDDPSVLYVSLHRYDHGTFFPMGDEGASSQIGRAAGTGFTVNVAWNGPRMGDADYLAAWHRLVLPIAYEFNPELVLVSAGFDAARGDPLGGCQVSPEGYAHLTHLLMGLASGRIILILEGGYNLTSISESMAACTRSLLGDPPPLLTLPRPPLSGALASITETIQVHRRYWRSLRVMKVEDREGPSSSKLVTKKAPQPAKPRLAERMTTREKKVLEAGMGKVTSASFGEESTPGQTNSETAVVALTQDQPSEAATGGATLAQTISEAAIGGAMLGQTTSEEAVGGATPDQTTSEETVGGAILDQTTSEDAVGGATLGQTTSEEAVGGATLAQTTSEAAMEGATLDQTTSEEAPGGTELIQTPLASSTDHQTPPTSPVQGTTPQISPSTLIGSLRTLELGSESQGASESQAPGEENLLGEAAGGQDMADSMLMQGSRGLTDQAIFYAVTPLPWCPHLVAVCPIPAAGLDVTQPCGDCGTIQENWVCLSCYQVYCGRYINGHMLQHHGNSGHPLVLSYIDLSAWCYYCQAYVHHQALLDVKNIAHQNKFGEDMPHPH

[2] = system: A2780cisR; assay: Induction of apoptosis in cisplatin resistant human A2780 cisR cells assessed as caspase-3/7 activation at 2 uM incubated for 48 hrs by capase3/7 green dye based analysis; type: functional, cell-based
[3] = system: CAL-27; assay: Induction of apoptosis in human CAL-27 cells assessed as increase in apoptotic nuclei at sub-G1 phase at 0.316 uM in presence of cisplatin at 3 uM preincubated with compound for 48 hrs prior to addition of cisplatin and measured after 24 hrs by flow cytometric analysis; type: functional, cell-based; settings: time 72.0 hrs
[4] = system: A2780; assay: Induction of apoptosis in human A2780 cells assessed as increase in apoptotic nuclei at sub-G1 phase at 2 uM incubated for 48 hrs by flow cytometric analysis; type: functional, cell-based
[5] = system: A2780cisR; assay: Induction of apoptosis in cisplatin resistant human A2780 cisR cells assessed as increase in apoptotic nuclei at sub-G1 phase at 2 uM incubated for 48 hrs by flow cytometric analysis; type: functional, cell-based
[6] = system: A2780; assay: Induction of apoptosis in human A2780 cells assessed as decrease in Bcl-2 protein level at 0.75 uM incubated for 48 hrs by Immunoblotting analysis; type: functional, cell-based
[7] = system: A2780cisR; assay: Induction of apoptosis in cisplatin resistant human A2780 cisR cells assessed as increase in Bcl-2 protein level at 2 uM in presence of cisplatin at 16 uM preincubated with compound for 48 hrs prior to addition of cisplatin and measured after 24 hrs by Immunoblotting analysis; type: functional, cell-based; settings: time 72.0 hrs
[8] = system: CAL-27; assay: Induction of cell cycle arrest in human CAL-27 cells assessed as increase in p21 expression at 0.316 uM incubated for 48 hrs by Western blotting analysis; type: functional, cell-based
[9] = system: A2780cisR; assay: Induction of cell cycle arrest in cisplatin resistant human A2780 cells assessed as increase in p21 expression at 2 uM incubated for 48 hrs by Western blotting analysis; type: functional, cell-based
[10] = system: CAL-27; assay: Downregulation of survivin expression in human CAL-27 cells at 0.316 uM in presence of cisplatin at 3 uM preincubated with compound for 48 hrs prior to addition of cisplatin and measured after 24 hrs by Immunoblotting analysis; type: functional, cell-based; settings: time 72.0 hrs
[11] = system: Cal27CisR; assay: Downregulation of survivin expression in cisplatin resistant human Cal27CisR cells at 0.316 uM in presence of cisplatin at 16.5 uM preincubated with compound for 48 hrs prior to addition of cisplatin and measured after 24 hrs by Immunoblotting analysis; type: functional, cell-based; settings: time 72.0 hrs
[12] = system: A2780cisR; assay: Downregulation of survivin expression in cisplatin resistant human A2780 cisR cells at 2 uM incubated for 48 hrs by Immunoblotting analysis; type: functional, cell-based
[13] = system: A2780cisR; assay: Effect on survivin expression in human cisplatin resistant human A2780 cisR cells at 2 uM in presence of cisplatin at 16 uM preincubated with compound for 48 hrs prior to addition of cisplatin and measured after 24 hrs by Immunoblotting analysis; type: functional, cell-based; settings: time 72.0 hrs
[14] = system: CAL-27; assay: Downregulation of BAX expression in human CAL-27 cells at 0.316 uM incubated for 48 hrs by Immunoblotting analysis; type: functional, cell-based
[15] = system: A2780cisR; assay: Downregulation of BAX expression in cisplatin resistant human A2780 cisR cells at 2 uM incubated for 48 hrs by Immunoblotting analysis; type: functional, cell-based
[16] = system: Cal27CisR; assay: Induction of apoptosis in cisplatin resistant human Cal27CisR cells assessed as increase in BIM expression at 0.316 uM in presence of cisplatin at 16.5 uM preincubated with compound for 48 hrs prior to addition of cisplatin and measured after 24 hrs by Immunoblotting analysis; type: functional, cell-based; settings: time 72.0 hrs
[17] = system: A2780; assay: Induction of apoptosis in human A2780 cells assessed as increase in BIM expression at 0.75 uM incubated for 48 hrs by Immunoblotting analysis; type: functional, cell-based
[18] = system: A2780cisR; assay: Induction of apoptosis in cisplatin resistant human A2780 cisR cells assessed as increase in BIM expression at 2 uM incubated for 48 hrs by Immunoblotting analysis; type: functional, cell-based
[19] = Cytotoxicity against human HEK293 cells assessed as reduction in cell viability incubated for 72 hrs by MTT assay; type: toxicity, cell-based
[20] = cells; settings: Homo sapiens, Cal27CisR
[21] = system: A2780cisR; assay: cells; settings: Homo sapiens, 72 h
[22] = system: CAL-27; assay: cells; settings: Homo sapiens, CAL-27, 72 h
[23] = cells; settings: Homo sapiens, A2780cisR

Row | IC50 [1] [nM] | IC50 [20] [nM] | Compound | Activity [2] | Activity [3] | Activity [4] | Activity [5] | Activity [6] | Activity [7] | Activity [8] | Activity [9] | Activity [10] | Activity [11] | Activity [12] | Activity [13] | Activity [14] | Activity [15] | Activity [16] | Activity [17] | Activity [18] | IC50 at 72 h [19] [nM] | other results
1 | > 10000 | 155 | CCCNNC(=O)c1ccc(CN(CC(=O)NCc2ccccc2)C(=O)c2ccc(N(C)C)cc2)cc1 | Active; Remarkable Activation Observed | Active | Active | Active | Active | Active | Active | Active | Active | Active | Active | inactive | Active | Active | Active | inactive | Active | 1160 | IC50 [21]: 2460 nM; IC50 [22]: 660 nM; IC50 [23]: 12500 nM
2 | > 3330 | 156 | CCCCNNC(=O)c1ccc(CN(CC(=O)NCc2ccccc2)C(=O)c2ccc(N(C)C)cc2)cc1 | Active; Remarkable Activation Observed | Active | Active | Active | Active | Active | Active | Active | Active | Active | Active | inactive | Active | Active | Active | inactive | Active | 1090 | IC50 [21]: 2690 nM; IC50 [22]: 688 nM; IC50 [23]: 11000 nM
